Experimental data published in US6716582B2 (priority 2000, dated 2004).
“And” between values parts separate entries of the source, which are not always exact repeats. Identical values can stand only once.

Tested on: LuxArray 1.0 luxCDABE gene fusions
Experiment: LuxArray 1.0 solid phase nalidixic acid perturbation
Type: cell-based, E. coli
Conditions: for Solid expt NA/LB: NA 5 μg/ml; for fold upregulation, nalidixic acid treated to untreated: solid LuxArray, 5 μg/ml, 4 hours
Protocol: The E. coli strains were grown overnight at 37° C. in 40 μl LB medium supplemented with 100 μg/ml ampicillin in a set of sixteen 96-well dishes. These cultures were designated “printing plates” and were used as the cell source to manufacture the arrays. Porous membranes (Biodyne B, Nunc) were sterilized with UV illumination for 10 min then placed in contact with pre-warmed of solid LB growth media in a culture dish (OmniTray, Nunc). Printing of 4×4 subarrays was accomplished using a BioMek 2000 (Beckman Coulter) equipped with a High Density Replication Tool (HDRT). […] After sterilization, the pins are air-dried prior to the next transfer. The E. coli strains in the LuxArray were printed onto an approximately 8×12 cm membrane in two sets of triplicates.
Arrays were printed from fresh overnight cultures onto membranes on plates containing LB media. After 6 hr of growth at 37° C. membranes were moved to pre-warmed plates containing either LB media or LB media supplemented with 5 μg/ml nalidixic acid then replaced at 37° C. to continue growing. Images were collected for each array every two hours from 0-8 hr after relocation using a cooled CCD camera (Fluor Chem 8000: f0.85 lens, 2 min exposure, AlphaInnotech).
Spot intensity of each image was determined using ArrayVision™ (Imaging Research, Toronto, Canada) and the resultant pixel density measurements imported into a template with identifiers for each spot. The average signal for each of the triplicate spots was calculated. The background signal, which results from cross illumination of neighboring spots, was calculated by finding the median of the 24 spots containing a strain with the parental plasmid on each of the triplicate arrays and the calculating the average of the three medians. This background signal was calculated at each of the time points and subtracted from each measurement at the corresponding time point. All negative numbers were converted to zero.
Data normalization to account for inhibition of growth by nalidixic acid was accomplished by finding the sum of the averaged signals of each spot in the array for each treatment at each time point. A normalization factor (NF) was calculated as follows:
NF=Total array signal (time zero, LB control)/Total array signal (time x, condition y)
Each measurement was multiplied by NF to yield a normalized signal. Ratios the nalidixic acid treated spot to the corresponding control spot were calculated using the normalized data.
The ratios of the normalized data were compared for each of the […] spots resulting from independent cultures in the array. […] Twelve gene fusions were selected by these criteria (Table 15).

CCn1cc(C(=O)O)c(=O)c2ccc(C)nc21 [Nalidixic acid, nalidixic acid]
Solid expt NA/LB (dinG ybiB lux-a.pk0024.f5, t = 2 hr, duplicate spots): 2.5 and 3.4 | Solid expt NA/LB (dinG ybiB lux-a.pk0024.f5, t = 4 hr): 3.7 and 4.2 | Solid expt NA/LB (dinG ybiB lux-a.pk0024.f5, t = 6 hr): 3.5 and 3.1 | Solid expt NA/LB (dinG ybiB lux-a.pk0024.f5, t = 8 hr): 2.9 and 2.6 | Solid expt NA/LB (dinP lux-a.pk055.a3, t = 2 hr): 3.1 and 5.5 | Solid expt NA/LB (dinP lux-a.pk055.a3, t = 6 hr): 4.2 and 8.1 | Solid expt NA/LB (frvR frvX frvB frvA lux-a.pk046.e6, t = 2 hr): 2.8 and 2.1 | Solid expt NA/LB (frvR frvX frvB frvA lux-a.pk046.e6, t = 4 hr): 2.3 | Solid expt NA/LB (lpxA lpxB rnhB dnaE lux-a.pk061.c3, t = 2 hr): 3.5 and 2.7 | Solid expt NA/LB (lpxA lpxB rnhB dnaE lux-a.pk061.c3, t = 4 hr): 3.1 and 3.5 | Solid expt NA/LB (lpxA lpxB rnhB dnaE lux-a.pk061.c3, t = 6 hr): 2.8 and 3.0 | Solid expt NA/LB (lpxA lpxB rnhB dnaE lux-a.pk061.c3, t = 8 hr): 1.7 and 1.9 | Solid expt NA/LB (lux-a.pk0015.d6, t = 2 hr): 2.3 and 2.2 | Solid expt NA/LB (lux-a.pk0015.d6, t = 4 hr): 6.4 and 4.1 | Solid expt NA/LB (lux-a.pk0015.d6, t = 6 hr): 2.7 and 1.9 | Solid expt NA/LB (lux-a.pk0015.d6, t = 8 hr): 0.6 and 0.8 | Solid expt NA/LB (lux-a.pk0019.g1, t = 2 hr): 2.5 and 4.4 | Solid expt NA/LB (lux-a.pk0019.g1, t = 4 hr): 7.7 and 8.2 | Solid expt NA/LB (lux-a.pk0019.g1, t = 6 hr): 9.7 and 15.5 | Solid expt NA/LB (lux-a.pk0019.g1, t = 8 hr): 7.1 and 10.2 | Solid expt NA/LB (lux-a.pk033.c5, t = 2 hr): 3.7 and 2.1 | Solid expt NA/LB (lux-a.pk033.c5, t = 4 hr): 4.3 and 3.1 | Solid expt NA/LB (lux-a.pk033.c5, t = 6 hr): 3.2 and 3.3 | Solid expt NA/LB (lux-a.pk033.c5, t = 8 hr): 2.6 and 2.5 | Solid expt NA/LB (oraA lux-a.pk058.f5, t = 2 hr): 5.1 and 4.7 | Solid expt NA/LB (oraA lux-a.pk058.f5, t = 4 hr): 7.9 and 7.7 | Solid expt NA/LB (oraA lux-a.pk058.f5, t = 6 hr): 5.9 and 5.6 | Solid expt NA/LB (oraA lux-a.pk058.f5, t = 8 hr): 3.9 and 3.8 | fold upregulation, nalidixic acid treated to untreated (ruvA-lux, duplicate spots): 1.7 fold and 2.1 fold | Solid expt NA/LB (uvrA lux-a.pk0001.b6, t = 2 hr): 2.5 and 2.9 | Solid expt NA/LB (uvrA lux-a.pk0001.b6, t = 4 hr): 2.3 and 2.4 | Solid expt NA/LB (uvrA lux-a.pk0001.b6, t = 6 hr): 1.6 and 1.1 | Solid expt NA/LB (uvrA lux-a.pk0001.b6, t = 8 hr): 1.0 and 0.6 | fold upregulation, nalidixic acid treated to untreated (uvrD-lux, duplicate spots): 1.6 fold and 1.9 fold | Solid expt NA/LB (yaaF lux-a.pk031.e7, t = 2 hr): 2.1 and 2.0 | Solid expt NA/LB (yaaF lux-a.pk031.e7, t = 4 hr): 2.0 and 2.1 | Solid expt NA/LB (yaaF lux-a.pk031.e7, t = 6 hr): 1.3 and 1.8 | Solid expt NA/LB (yaaF lux-a.pk031.e7, t = 8 hr): 1.0 and 1.5 | Solid expt NA/LB (yfhJ fdx hscA yfhE lux-a.pk0019.g2, t = 2 hr): 2.1 | Solid expt NA/LB (yfhJ fdx hscA yfhE lux-a.pk0019.g2, t = 4 hr): 2.0 and 2.2 | Solid expt NA/LB (yfhJ fdx hscA yfhE lux-a.pk0019.g2, t = 6 hr): 1.7 and 1.5 | Solid expt NA/LB (yfhJ fdx hscA yfhE lux-a.pk0019.g2, t = 8 hr): 1.4 and 1.3 | Solid expt NA/LB (yigN lux-a.pk046.f11, t = 4 hr): 2.5 and 4.3
